Experimental data: publication PMC3156385 (Chemical research in toxicology, 2011)
Read-outs that look alike come from different tables or passages of the source.

What was measured:
P450 1B1 [1] = molecular target: T1, P450 1B1 (Homo sapiens, UniProt Q16678); assay: Spectral binding titration with purified recombinant P450 1B1; settings: for ΔAmax/Ks / ΔAmax: Reverse Type I binding, 1 µM P450; for ΔAmax: means ± SE
T1 sequence (Q16678 1-543): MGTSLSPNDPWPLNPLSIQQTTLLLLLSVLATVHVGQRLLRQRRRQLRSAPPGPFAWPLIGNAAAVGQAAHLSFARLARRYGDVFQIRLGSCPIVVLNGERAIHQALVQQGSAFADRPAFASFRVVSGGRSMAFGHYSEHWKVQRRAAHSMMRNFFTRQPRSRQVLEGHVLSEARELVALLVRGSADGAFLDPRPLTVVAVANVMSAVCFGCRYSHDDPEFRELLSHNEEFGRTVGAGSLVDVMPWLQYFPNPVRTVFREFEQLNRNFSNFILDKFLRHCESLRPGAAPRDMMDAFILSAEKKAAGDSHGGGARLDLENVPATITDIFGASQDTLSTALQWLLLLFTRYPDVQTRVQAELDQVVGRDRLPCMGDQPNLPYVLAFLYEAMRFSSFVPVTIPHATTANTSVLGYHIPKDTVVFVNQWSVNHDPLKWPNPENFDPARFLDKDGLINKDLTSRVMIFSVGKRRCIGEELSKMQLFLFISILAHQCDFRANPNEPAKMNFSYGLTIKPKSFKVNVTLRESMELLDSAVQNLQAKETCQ

P450 2A13 [2] = molecular target: T2, P450 2A13 (Homo sapiens, UniProt Q16696); format: biochemical
T2 sequence (Q16696 1-494): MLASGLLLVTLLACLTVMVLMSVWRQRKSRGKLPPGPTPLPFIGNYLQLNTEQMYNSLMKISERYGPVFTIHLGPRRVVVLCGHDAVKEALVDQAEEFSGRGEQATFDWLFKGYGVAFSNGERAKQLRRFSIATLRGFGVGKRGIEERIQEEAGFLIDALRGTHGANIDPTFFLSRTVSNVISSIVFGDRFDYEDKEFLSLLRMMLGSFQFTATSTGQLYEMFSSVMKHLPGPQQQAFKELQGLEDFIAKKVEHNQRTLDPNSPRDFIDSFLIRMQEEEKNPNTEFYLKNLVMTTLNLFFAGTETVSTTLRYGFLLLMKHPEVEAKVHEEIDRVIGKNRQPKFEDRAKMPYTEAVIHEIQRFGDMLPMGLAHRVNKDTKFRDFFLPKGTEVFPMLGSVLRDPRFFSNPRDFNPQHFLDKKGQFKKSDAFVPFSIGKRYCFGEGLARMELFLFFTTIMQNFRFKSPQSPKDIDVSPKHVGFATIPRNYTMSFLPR

P450 1A1 = molecular target: T3, P450 1A1 (Homo sapiens, UniProt P04798); assay: Spectral binding titration with purified recombinant P450 1A1; settings: for ΔAmax/Ks / ΔAmax: Reverse Type I binding, 1 µM P450; for ΔAmax: means ± SE
T3 sequence (P04798 1-512): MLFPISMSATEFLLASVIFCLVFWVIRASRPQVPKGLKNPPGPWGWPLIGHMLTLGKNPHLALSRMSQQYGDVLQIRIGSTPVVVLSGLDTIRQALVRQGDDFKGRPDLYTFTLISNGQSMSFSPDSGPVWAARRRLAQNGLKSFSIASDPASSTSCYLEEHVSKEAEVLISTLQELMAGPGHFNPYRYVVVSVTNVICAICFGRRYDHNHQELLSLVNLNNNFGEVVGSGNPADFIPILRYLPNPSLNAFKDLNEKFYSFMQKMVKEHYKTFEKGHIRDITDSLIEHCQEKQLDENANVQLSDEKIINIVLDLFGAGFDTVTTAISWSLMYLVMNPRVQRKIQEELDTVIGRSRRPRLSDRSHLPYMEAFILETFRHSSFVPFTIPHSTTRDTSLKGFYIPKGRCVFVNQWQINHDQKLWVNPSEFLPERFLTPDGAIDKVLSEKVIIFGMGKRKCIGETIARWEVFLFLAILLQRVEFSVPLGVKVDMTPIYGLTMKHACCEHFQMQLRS

P450 2A6 [3] = molecular target: T4, P450 2A6 (Homo sapiens, UniProt P11509); format: biochemical
T4 sequence (P11509 1-494): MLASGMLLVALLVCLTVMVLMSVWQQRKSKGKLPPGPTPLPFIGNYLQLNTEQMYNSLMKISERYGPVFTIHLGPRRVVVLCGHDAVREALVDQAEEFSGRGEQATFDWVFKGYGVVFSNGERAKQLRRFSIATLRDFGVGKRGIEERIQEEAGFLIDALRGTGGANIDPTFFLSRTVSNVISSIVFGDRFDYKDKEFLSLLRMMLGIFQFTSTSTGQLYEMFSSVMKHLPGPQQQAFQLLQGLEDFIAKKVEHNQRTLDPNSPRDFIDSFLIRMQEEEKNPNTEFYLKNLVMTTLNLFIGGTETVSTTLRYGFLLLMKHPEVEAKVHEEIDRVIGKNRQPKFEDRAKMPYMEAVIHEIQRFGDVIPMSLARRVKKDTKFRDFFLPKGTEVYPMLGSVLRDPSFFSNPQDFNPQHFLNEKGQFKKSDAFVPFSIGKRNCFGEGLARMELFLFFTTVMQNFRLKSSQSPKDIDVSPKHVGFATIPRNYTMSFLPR

P450 2A13 [4] = assay: Spectral binding titration with purified recombinant P450 2A13; settings: Ks P450 2A6 / Ks P450 2A13
P450 2A13 [5] = molecular target: T2, P450 2A13; assay: as above; settings: for ΔAmax/Ks / ΔAmax: Type I binding; for ΔAmax: means ± SE
P450 2A6 [6] = molecular target: T4, P450 2A6; assay: Inhibition of P450 2A6-dependent coumarin 7-hydroxylation; format: biochemical
P450 2A13 [7] = molecular target: T2, P450 2A13; assay: Inhibition of P450 2A13-dependent coumarin 7-hydroxylation; format: biochemical
P450 1B1 [8] = molecular target: T1, P450 1B1; assay: Inhibition of P450 1B1-dependent EROD activity; format: biochemical
P450 2A6 [9] = molecular target: T4, P450 2A6; assay: Spectral binding titration with purified recombinant P450 2A6; settings: for ΔAmax/Ks / ΔAmax: Type I binding, 1 µM P450; for ΔAmax: means ± SE
[10] = preincubation 15 min with NADPH vs without

| Structure (SMILES) | Kd (P450 1B1 [1]) | ΔAmax/Ks (P450 1B1 [1]) | ΔAmax (P450 1B1 [1]) | Kd (P450 1A1) | ΔAmax/Ks (P450 1A1) | ΔAmax (P450 1A1) | Ks of P450 2A13 lower than with P450 2A6 (P450 2A13 [4]) | Kd (P450 2A13 [5]) | ΔAmax/Ks (P450 2A13 [5]; 1 µM P450) | ΔAmax (P450 2A13 [5]; 1 µM P450) | IC50 (P450 2A6 [6]) | IC50 (P450 2A13 [7]) | Kd (P450 2A6 [9]) | ΔAmax/Ks (P450 2A6 [9]) | ΔAmax (P450 2A6 [9]) | also measured |
| --- | --- | --- | --- | --- | --- | --- | --- | --- | --- | --- | --- | --- | --- | --- | --- | --- |
| N#C[Se]Cc1ccccc1 [BSC, benzyl selenocyanate] | 5300 ± 960 nM | 3.60 × 10^−3 | 19 ± 0.11 × 10^−3 | 23000 ± 4100 nM | 0.61 × 10^−3 | 14 ± 1.0 × 10^−3 | 10 fold | 200 ± 21 nM | 470.00 × 10^−3 | 94 ± 1.5 × 10^−3 | 4300 ± 360 nM | 1200 ± 190 nM | 2000 ± 140 nM | 32.00 × 10^−3 | 66 ± 0.93 × 10^−3 | effect of preincubation on inhibition potency of coumarin 7-hydroxylation (P450 2A13 [2]): did not change the inhibition potencies; type of binding spectra (P450 1A1; difference spectra): Reverse Type I; effect of preincubation on inhibition potency of coumarin 7-hydroxylation (P450 2A6 [3]): did not change the inhibition potencies; type of binding spectra (P450 2A13 [5]; difference spectra): Type I; IC50 (P450 1B1 [8]): 270 ± 31 nM; type of binding spectra (P450 2A6 [9]; difference spectra): Type I |
| N#C[Se]Cc1cccc(C[Se]C#N)c1 [m-XSC, 1,3-phenylenebis(methylene)selenocyanate] | 5700 ± 1000 nM | 3.70 × 10^−3 | 21 ± 1.0 × 10^−3 | 30000 ± 4500 nM | 0.60 × 10^−3 | 18 ± 1.2 × 10^−3 | 28 fold | 200 ± 15 nM | 395.00 × 10^−3 | 79 ± 0.91 × 10^−3 | 2400 ± 190 nM | 220 ± 31 nM | 5700 ± 520 nM | 6.50 × 10^−3 | 37 ± 0.88 × 10^−3 | type of binding spectra (P450 1B1 [1]; difference spectra): Reverse Type I; effect of preincubation on inhibition potency of coumarin 7-hydroxylation (P450 2A13 [2]; [10]): did not change the inhibition potencies; coumarin 7-hydroxylation, % of control (P450 2A13 [2]; with preincubation 15 min with NADPH, 1.0 µM coumarin, BSC 1.2 µM, m-XSC 0.22 µM): 54 % of control; coumarin 7-hydroxylation, % of control (P450 2A13 [2]; without preincubation, 1.0 µM coumarin, BSC 1.2 µM, m-XSC 0.22 µM): 56 % of control; coumarin 7-hydroxylation (P450 2A13 [2]; without preincubation, 1.0 µM coumarin, BSC 1.2 µM, m-XSC 0.22 µM, control 1.04): 0.59 nmol/min/nmol P450; effect of preincubation on inhibition potency of coumarin 7-hydroxylation (P450 2A6 [3]; [10]): did not change the inhibition potencies; coumarin 7-hydroxylation, % of control (P450 2A6 [3]; with preincubation 15 min with NADPH, 1.0 µM coumarin, BSC 4.3 µM, m-XSC 0.68 µM): 48 % of control; coumarin 7-hydroxylation, % of control (P450 2A6 [3]; without preincubation, 1.0 µM coumarin, BSC 4.3 µM, m-XSC 0.68 µM): 48 % of control; coumarin 7-hydroxylation (P450 2A6 [3]; without preincubation, 1.0 µM coumarin, BSC 4.3 µM, m-XSC 0.68 µM, control 3.26): 1.56 nmol/min/nmol P450; ΔAmax/Ks (P450 2A13 [5]; as printed in text without ×10^−3): 0.40; metabolism-dependent inhibition of P450 1B1 (EROD) (P450 1B1 [8]; m-XSC 0.033, 0.083, 0.33 µM, preincubation 2 and 4 min with NADPH): no metabolism-dependent inhibition |
